Results reported in PMC3961306, “Comparison of the Cancer Gene Targeting and Biochemical Selectivities of All Targeted Kinase Inhibitors Approved for Clinical Use” (PLoS ONE, 2014).

Legend:
Assay in all cases: Kinase profiling in a biochemical assay panel (mobility shift assays and ELISA), %-inhibition at 1 μM; selectivity entropy
[1] = biological target: T1, panel of more than 300 wild-type and mutant kinases (313 kinase panel) (Homo sapiens, UniProt P41743); conditions: kinase PKCι; 1 μM
T1 sequence (P41743 1-596): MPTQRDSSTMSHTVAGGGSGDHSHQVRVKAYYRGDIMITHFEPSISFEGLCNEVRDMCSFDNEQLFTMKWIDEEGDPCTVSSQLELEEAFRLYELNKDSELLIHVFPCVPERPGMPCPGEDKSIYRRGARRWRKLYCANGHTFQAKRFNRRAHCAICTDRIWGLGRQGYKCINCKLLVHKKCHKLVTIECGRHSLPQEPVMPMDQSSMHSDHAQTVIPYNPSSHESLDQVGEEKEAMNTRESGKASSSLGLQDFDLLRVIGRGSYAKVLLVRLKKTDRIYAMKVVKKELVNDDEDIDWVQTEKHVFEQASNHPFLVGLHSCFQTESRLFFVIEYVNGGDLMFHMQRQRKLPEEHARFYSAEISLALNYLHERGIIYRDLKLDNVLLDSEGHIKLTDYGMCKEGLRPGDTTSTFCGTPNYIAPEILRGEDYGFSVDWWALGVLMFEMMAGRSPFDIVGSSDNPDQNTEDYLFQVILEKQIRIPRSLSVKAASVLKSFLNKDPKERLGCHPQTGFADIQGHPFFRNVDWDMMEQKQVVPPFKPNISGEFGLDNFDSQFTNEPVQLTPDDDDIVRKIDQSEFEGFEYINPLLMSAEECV

[2] = biological target: panel of more than 300 wild-type and mutant kinases (313 kinase panel) (Homo sapiens, UniProt P49760); conditions: kinase CLK2; 1 μM compound
[3] = biological target: T2, panel of more than 300 wild-type and mutant kinases (313 kinase panel) (Homo sapiens, UniProt Q13043); conditions: kinase MST1; 1 μM
T2 sequence (Q13043 1-487): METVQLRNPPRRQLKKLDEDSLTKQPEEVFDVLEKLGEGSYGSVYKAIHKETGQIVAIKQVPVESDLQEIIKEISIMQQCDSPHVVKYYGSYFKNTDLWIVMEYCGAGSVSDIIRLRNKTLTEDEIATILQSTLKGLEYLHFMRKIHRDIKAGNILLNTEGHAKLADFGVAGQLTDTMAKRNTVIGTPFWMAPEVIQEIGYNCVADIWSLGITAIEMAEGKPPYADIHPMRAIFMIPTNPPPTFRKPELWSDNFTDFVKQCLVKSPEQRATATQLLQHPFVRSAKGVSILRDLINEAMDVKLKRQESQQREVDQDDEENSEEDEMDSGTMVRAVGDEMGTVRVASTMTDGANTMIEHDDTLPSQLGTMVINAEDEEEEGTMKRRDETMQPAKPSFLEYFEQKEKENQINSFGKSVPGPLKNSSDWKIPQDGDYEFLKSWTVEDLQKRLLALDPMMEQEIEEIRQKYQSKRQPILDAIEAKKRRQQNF

[4] = biological target: T3, panel of more than 300 wild-type and mutant kinases (313 kinase panel) (Homo sapiens, UniProt Q15139); conditions: kinase PKD1; 1 μM
T3 sequence (Q15139 1-912): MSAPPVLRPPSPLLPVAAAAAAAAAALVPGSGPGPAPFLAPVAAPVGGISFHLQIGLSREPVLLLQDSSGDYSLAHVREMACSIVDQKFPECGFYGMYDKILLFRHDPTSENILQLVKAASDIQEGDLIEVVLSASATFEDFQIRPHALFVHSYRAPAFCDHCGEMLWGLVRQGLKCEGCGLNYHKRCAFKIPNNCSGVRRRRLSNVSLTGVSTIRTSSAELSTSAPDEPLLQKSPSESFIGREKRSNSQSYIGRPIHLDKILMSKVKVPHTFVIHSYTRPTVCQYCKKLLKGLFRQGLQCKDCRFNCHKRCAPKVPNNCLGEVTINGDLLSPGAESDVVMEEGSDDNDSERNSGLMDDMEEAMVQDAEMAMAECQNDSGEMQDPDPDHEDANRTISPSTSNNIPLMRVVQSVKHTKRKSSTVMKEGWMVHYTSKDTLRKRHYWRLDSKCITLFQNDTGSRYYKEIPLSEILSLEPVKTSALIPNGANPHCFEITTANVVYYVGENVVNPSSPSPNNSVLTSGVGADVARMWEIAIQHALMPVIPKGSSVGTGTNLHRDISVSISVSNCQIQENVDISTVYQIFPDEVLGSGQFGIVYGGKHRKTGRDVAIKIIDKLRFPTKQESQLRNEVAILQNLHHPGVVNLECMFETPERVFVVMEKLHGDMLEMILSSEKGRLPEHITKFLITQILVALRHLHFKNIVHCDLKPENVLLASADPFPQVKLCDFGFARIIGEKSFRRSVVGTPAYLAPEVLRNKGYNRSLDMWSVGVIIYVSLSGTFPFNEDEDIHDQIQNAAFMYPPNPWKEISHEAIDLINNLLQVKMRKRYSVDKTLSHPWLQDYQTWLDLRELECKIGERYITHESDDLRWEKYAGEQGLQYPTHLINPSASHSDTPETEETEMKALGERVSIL

[5] = biological target: panel of more than 300 wild-type and mutant kinases (313 kinase panel) (Homo sapiens, UniProt Q16512); conditions: kinase PKN1; 1 μM
[6] = biological target: panel of more than 300 wild-type and mutant kinases (313 kinase panel) (Homo sapiens, UniProt Q86V86); conditions: kinase PIM3; 1 μM
[7] = biological target: panel of more than 300 wild-type and mutant kinases (313 kinase panel) (Homo sapiens, UniProt Q9H1R3); conditions: kinase skMLCK; 1 μM

CC(=O)Nc1cccc(-n2c(=O)n(C3CC3)c(=O)c3c(Nc4ccc(I)cc4F)n(C)c(=O)c(C)c32)c1 [trametinib]
%-inhibition of PKCι [1]: 9% | %-inhibition, CLK2 [2]: -5% | %-inhibition of MST1 [3]: -3.74% | %-inhibition of PKD1 [4]: 9% | %-inhibition of PKN1 [5]: 3.71% | %-inhibition of PIM3 [6]: 8.44% | %-inhibition of skMLCK [7]: -3.34%

CCCS(=O)(=O)Nc1ccc(F)c(C(=O)c2c[nH]c3ncc(-c4ccc(Cl)cc4)cc23)c1F [vemurafenib]
%-inhibition of PKCι [1]: -16% | %-inhibition, CLK2 [2]: -13% | %-inhibition of MST1 [3]: 51% | %-inhibition of PKD1 [4]: 43% | %-inhibition of PKN1 [5]: -0.378% | %-inhibition of PIM3 [6]: -5% | %-inhibition of skMLCK [7]: 53%
